22 compounds from patent US12637454B2, “Heterocyclic monoacylglycerol lipase (MAGL) inhibitors” (Hoffmann-La Roche Inc., priority 2019, dated 2026) can be followed below.

pIC50: −log10 of the molar value.

The assay deals with T1, MAGL (Homo sapiens, UniProt Q99685).
T1 sequence (Q99685 1-303): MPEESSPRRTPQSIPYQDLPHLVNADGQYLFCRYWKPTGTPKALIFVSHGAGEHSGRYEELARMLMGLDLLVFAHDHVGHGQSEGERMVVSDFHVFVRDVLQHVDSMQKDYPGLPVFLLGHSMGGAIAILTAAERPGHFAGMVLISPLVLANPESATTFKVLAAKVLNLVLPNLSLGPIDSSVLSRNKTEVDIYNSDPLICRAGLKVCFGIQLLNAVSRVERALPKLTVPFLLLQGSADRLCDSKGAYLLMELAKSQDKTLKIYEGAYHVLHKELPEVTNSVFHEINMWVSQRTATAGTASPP
Kind of assay: 2-AG assay (MAGL inhibitory activity, hydrolysis of 2-arachidonoylglycerol followed by mass spectrometry). The format is biochemical. Conditions: 50 pM MAGL, 8 μM 2-arachidonoylglycerol, 15 min preincubation, 30 min incubation at RT. As for the experimental part:
Compounds were profiled for MAGL inhibitory activity by determining the enzymatic activity by following the hydrolysis of the natural substrate 2-arachidonoylglycerol (2-AG) resulting in arachidonic acid, which can be followed by mass spectrometry. This assay is hereinafter abbreviated “2-AG assay”.
The 2-AG assay was carried out in 384 well assay plates (PP, Greiner Cat #784201) in a total volume of 20 μL. Compound dilutions were made in 100% DMSO (VWR Chemicals 23500.297) in a polypropylene plate in 3-fold dilution steps to give a final concentration range in the assay from 12.5 μM to 0.8 pM. 0.25 μL compound dilutions (100% DMSO) were added to 9 μL MAGL in assay buffer (50 mM TRIS (GIBCO, 15567-027), 1 mM EDTA (Fluka, 03690-100 mL), 0.01% (v/v) Tween. After shaking, the plate was incubated for 15 min at RT. To start the reaction, 10 μL 2-arachidonoylglycerol in assay buffer was added. The final concentrations in the assay was 50 pM MAGL and 8 μM 2-arachidonoylglyerol. After shaking and 30 min incubation at RT, the reaction was quenched by the addition of […] of ACN containing 4 μM of d8-arachidonic acid. The amount of arachidonic acid was traced by an online SPE system (Agilent Rapidfire) coupled to a triple quadrupole mass spectrometer (Agilent 6460). A C18 SPE cartridge (G9205A) was used in an ACN/water liquid setup. The mass spectrometer was operated in negative electrospray mode following the mass transitions 303.1→259.1 for arachidonic acid and 311.1→267.0 for d8-arachidonic acid. The activity of the compounds was calculated based on the ratio of intensities [arachidonic acid/d8-arachidonic acid].

One may read the pIC50 as the negative decadic logarithm of the IC50, by convention in mol/L. Low readings indicate a high IC50, high ones a low IC50. `O=C(c1cccc(N2CC[C@@H](O)C2)c1Cl)N1CCN2C[C@@](O)(c3ccc(Cl)cc3)CC[C@@H]2C1` [Example 45, [(7S,9aR)-7-(4-chlorophenyl)-7-hydroxy-3,4,6,8,9,9a-hexahydro-1H-pyrido[1,2-a]pyrazin-2-yl]-[2-chloro-3-[(3R)-3-hydroxypyrrolidin-1-yl]phenyl]methanone] showed a pIC50 of 7.17.

On to `CC1(O)CN(c2cccc(C(=O)N3CCN4C[C@@](O)(c5ccc(Cl)cc5)CC[C@@H]4C3)c2Cl)C1` [Example 46, [(7S,9aR)-7-(4-chlorophenyl)-7-hydroxy-3,4,6,8,9,9a-hexahydro-1H-pyrido[1,2-a]pyrazin-2-yl]-[2-chloro-3-(3-hydroxy-3-methylazetidin-1-yl)phenyl]methanone], for which the pIC50 was 6.63.

`O=C(c1cccc(N2CCC[C@H](O)C2)c1Cl)N1CCN2C[C@@](O)(c3ccc(F)c(Cl)c3)CC[C@@H]2C1` [Example 47, [(7S,9aR)-7-(3-chloro-4-fluorophenyl)-7-hydroxy-3,4,6,8,9,9a-hexahydro-1H-pyrido[1,2-a]pyrazin-2-yl]-[2-chloro-3-[(3S)-3-hydroxypiperidin-1-yl]phenyl]methanone] showed a negative-log IC50 (pIC50) of 7.38.

In turn, `O=C(c1cccc(N2CCC[C@@H](O)C2)c1Cl)N1CCN2C[C@@](O)(c3ccc(F)c(Cl)c3)CC[C@@H]2C1` [Example 48, [(7S,9aR)-7-(3-chloro-4-fluorophenyl)-7-hydroxy-3,4,6,8,9,9a-hexahydro-1H-pyrido[1,2-a]pyrazin-2-yl]-[2-chloro-3-[(3R)-3-hydroxypiperidin-1-yl]phenyl]methanone] gave a negative-log IC50 (pIC50) of 6.53.

`O=C(c1cccc(N2CCC(O)CC2)c1Cl)N1CCN2C[C@@](O)(c3ccc(Cl)cc3)CC[C@@H]2C1` [Example 49, [(7S,9aR)-7-(4-chlorophenyl)-7-hydroxy-3,4,6,8,9,9a-hexahydro-1H-pyrido[1,2-a]pyrazin-2-yl]-[2-chloro-3-(4-hydroxypiperidin-1-yl)phenyl]methanone]: the pIC50 is 7.09.

For `O=C(c1cccc(N2C[C@H](O)[C@@H](O)C2)c1Cl)N1CCN2C[C@@](O)(c3ccc(F)c(Cl)c3)CC[C@@H]2C1` [Example 51, [(7S,9aR)-7-(3-chloro-4-fluorophenyl)-7-hydroxy-3,4,6,8,9,9a-hexahydro-1H-pyrido[1,2-a]pyrazin-2-yl]-[2-chloro-3-[(3S,4S)-3,4-dihydroxypyrrolidin-1-yl]phenyl]methanone], the negative-log IC50 (pIC50) is 7.96.

Turning to `O=C(c1cccc(N2CC(F)(CO)C2)c1Cl)N1CCN2C[C@@](O)(c3ccc(F)c(Cl)c3)CC[C@@H]2C1` [Example 52, [(7S,9aR)-7-(3-chloro-4-fluorophenyl)-7-hydroxy-3,4,6,8,9,9a-hexahydro-1H-pyrido[1,2-a]pyrazin-2-yl]-[2-chloro-3-[3-fluoro-3-(hydroxymethyl)azetidin-1-yl]phenyl]methanone], the negative logarithm of the IC50 (pIC50) is 7.07.

`O=C(c1cccc(N2CC(CO)C2)c1Cl)N1CCN2C[C@@](O)(c3ccc(F)c(Cl)c3)CC[C@@H]2C1` [Example 53, [(7S,9aR)-7-(3-chloro-4-fluorophenyl)-7-hydroxy-3,4,6,8,9,9a-hexahydro-1H-pyrido[1,2-a]pyrazin-2-yl]-[2-chloro-3-[3-(hydroxymethyl)azetidin-1-yl]phenyl]methanone]: the pIC50 was 7.10.

`O=C(c1cccc(-c2cc[nH]n2)c1Cl)N1CCN2C[C@@](O)(c3ccc(F)c(Cl)c3)CC[C@@H]2C1` [Example 54, [(7S,9aR)-7-(3-chloro-4-fluorophenyl)-7-hydroxy-3,4,6,8,9,9a-hexahydro-1H-pyrido[1,2-a]pyrazin-2-yl]-[2-chloro-3-(1H-pyrazol-3-yl)phenyl]methanone] showed a pIC50 of 8.51.

For the compound `O=C(c1cccc(-c2cc[nH]n2)c1F)N1CCN2C[C@@](O)(c3ccc(F)c(Cl)c3)CC[C@@H]2C1` [Example 55, [(7S,9aR)-7-(3-chloro-4-fluorophenyl)-7-hydroxy-3,4,6,8,9,9a-hexahydro-1H-pyrido[1,2-a]pyrazin-2-yl]-[2-fluoro-3-(1H-pyrazol-3-yl)phenyl]methanone], the pIC50 is 8.04.

`O=C(c1cccc(-c2ccsn2)c1F)N1CCN2C[C@@](O)(c3ccc(Cl)cc3)CC[C@@H]2C1` [Example 56, [(7S,9aR)-7-(4-chlorophenyl)-7-hydroxy-3,4,6,8,9,9a-hexahydro-1H-pyrido[1,2-a]pyrazin-2-yl]-[2-fluoro-3-(1,2-thiazol-3-yl)phenyl]methanone] showed a negative logarithm of the IC50 (pIC50) of 7.43.

Regarding `O=C(c1cccc(-c2[nH]ncc2F)c1Cl)N1CCN2C[C@@](O)(c3ccc(F)c(Cl)c3)CC[C@@H]2C1` [Example 57, [(7S,9aR)-7-(3-chloro-4-fluorophenyl)-7-hydroxy-3,4,6,8,9,9a-hexahydro-1H-pyrido[1,2-a]pyrazin-2-yl]-[2-chloro-3-(4-fluoro-1H-pyrazol-5-yl)phenyl]methanone], the negative-log IC50 (pIC50) is 9.13.

The compound `O=C(c1cccc(-c2ncsn2)c1Cl)N1CCN2C[C@@](O)(c3ccc(F)c(Cl)c3)CC[C@@H]2C1` [Example 58, [(7S,9aR)-7-(3-chloro-4-fluorophenyl)-7-hydroxy-3,4,6,8,9,9a-hexahydro-1H-pyrido[1,2-a]pyrazin-2-yl]-[2-chloro-3-(1,2,4-thiadiazol-3-yl)phenyl]methanone] gave a pIC50 of 7.85.

As to `COc1cccc(C(=O)N2CCN3C[C@@](O)(c4ccc(F)c(F)c4)CC[C@@H]3C2)c1Cl` [Example 59, [(7S,9aR)-7-(3,4-difluorophenyl)-7-hydroxy-3,4,6,8,9,9a-hexahydro-1H-pyrido[1,2-a]pyrazin-2-yl]-(2-chloro-3-methoxyphenyl)methanone], the negative-log IC50 (pIC50) is 7.95.

`COc1cccc(C(=O)N2CCN3C[C@](O)(c4ccc(F)c(F)c4)CC[C@H]3C2)c1Cl` [Example 60, [(7R,9aS)-7-(3,4-difluorophenyl)-7-hydroxy-3,4,6,8,9,9a-hexahydro-1H-pyrido[1,2-a]pyrazin-2-yl]-(2-chloro-3-methoxyphenyl)methanone] showed a pIC50 of 6.93.

`O=C(c1cccc(-c2ccn[nH]2)c1F)N1CCN2C[C@@](O)(c3ccc(F)c(F)c3)CC[C@@H]2C1` [Example 61, [(7S,9aR)-7-(3,4-difluorophenyl)-7-hydroxy-3,4,6,8,9,9a-hexahydro-1H-pyrido[1,2-a]pyrazin-2-yl]-[2-fluoro-3-(1H-pyrazol-5-yl)phenyl]methanone] had a pIC50 of 7.85.

`O=C(c1cccc(-c2[nH]ncc2F)c1F)N1CCN2C[C@@](O)(c3ccc(F)c(F)c3)CC[C@@H]2C1` [Example 62, [(7S,9aR)-7-(3,4-difluorophenyl)-7-hydroxy-3,4,6,8,9,9a-hexahydro-1H-pyrido[1,2-a]pyrazin-2-yl]-[2-fluoro-3-(4-fluoro-1H-pyrazol-5-yl)phenyl]methanone] gave a pIC50 of 7.69.

`O=C(c1cccc(N2CC(O)C2)c1Cl)N1CCN2C[C@@](O)(c3ccc(F)c(F)c3)CC[C@@H]2C1` [Example 63, [(7S,9aR)-7-(3,4-difluorophenyl)-7-hydroxy-3,4,6,8,9,9a-hexahydro-1H-pyrido[1,2-a]pyrazin-2-yl]-[2-chloro-3-(3-hydroxyazetidin-1-yl)phenyl]methanone] showed a pIC50 of 7.40.

Regarding `O=C(c1cccc(-c2[nH]ncc2F)c1Cl)N1CCN2C[C@@](O)(c3ccc(C(F)(F)F)cn3)CC[C@@H]2C1` [Example 64], the negative-log IC50 (pIC50) was 7.87.

As to `O=C(c1cccc2c1CCN2)N1CCN2C[C@@](O)(c3ccc(F)c(Cl)c3)CC[C@@H]2C1` [Example 65, [(7S,9aR)-7-(3-chloro-4-fluorophenyl)-7-hydroxy-3,4,6,8,9,9a-hexahydro-1H-pyrido[1,2-a]pyrazin-2-yl]-(2,3-dihydro-1H-indol-4-yl)methanone], the pIC50 was 7.16.

As for `O=C(c1cncc(-c2cc[nH]n2)c1Cl)N1CCN2C[C@@](O)(c3ccc(Cl)cc3)CC[C@@H]2C1` [Example 66, [(7S,9aR)-7-(4-chlorophenyl)-7-hydroxy-3,4,6,8,9,9a-hexahydro-1H-pyrido[1,2-a]pyrazin-2-yl]-[4-chloro-5-(1H-pyrazol-3-yl)pyridin-3-yl]methanone], the negative logarithm of the IC50 (pIC50) was 6.76.

The compound `O=C(c1cccc(-c2ccsn2)c1Cl)N1CCN2C[C@@](O)(c3ccc(Cl)cc3)CC[C@@H]2C1` [Example 67, [(7S,9aR)-7-(4-chlorophenyl)-7-hydroxy-3,4,6,8,9,9a-hexahydro-1H-pyrido[1,2-a]pyrazin-2-yl]-[2-chloro-3-(1,2-thiazol-3-yl)phenyl]methanone] gave a negative-log IC50 (pIC50) of 7.83.
